In the supplement of paper PMC4862054:

How the values were obtained:
BT-474 = assay: normalised response (% of control), CellTiter-Glo; higher = more viable cells (100 = DMSO, 0 = benzethonium chloride kill control); settings: incubation time: 72 h
In short: (§1)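 Each value is the plate-normalised signal at one concentration of the series. Breast cancer cell lines (20 µl suspension) were incubated 72 h in 384-well plates with compound at 5 concentrations in 10-fold steps over a compound-specific 10,000-fold range. CellTox Green and then CellTiter-Glo were read, and each plate was scaled to 0.1 % DMSO (100) and a positive kill control (0).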

MDA-MB-436 = assay: as above; settings: incubation time: 72 h
In short: as §1

MDA-MB-468 = assay: as above; settings: incubation time: 72 h
In short: as §1

MDA-MB-231 = assay: as above; settings: incubation time: 72 h
In short: as §1

MDA-MB-453 [1] = assay: as above; settings: incubation time: 72 h
In short: as §1

CAL-51 [2] = assay: as above; settings: incubation time: 72 h
In short: as §1

BT-549 = assay: as above; settings: incubation time: 72 h
In short: as §1

HCC1143 = assay: as above; settings: incubation time: 72 h
In short: as §1

CAL-85-1 [3] = assay: as above; settings: incubation time: 72 h
In short: as §1

HCC1599 = assay: as above; settings: incubation time: 72 h
In short: as §1

CAL-85-1 [4] = settings: 72 h
In short: (§2)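 Compound dissolved in 5 µl medium was placed in 384-well plates before 20 µl of breast cancer cell suspension was added, and the plates were incubated for 72 h. Cells then received 2.5 µl CellTiter-Blue for 2 h at 37 °C, and fluorescence was read at 560/590 nm. EC50 values come from percent-inhibition dose-response fits that were censored at the highest concentration, with plates normalised to vehicle and a positive kill control and rows with a zero drug sensitivity score excluded.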

HDQ-P1 = settings: 72 h
In short: as §2

CAL-148 = settings: 72 h
In short: as §2

MDA-MB-453 [5] = settings: 72 h
In short: as §2

CAL-51 [6] = settings: 72 h
In short: as §2

DU-4475 = settings: 72 h
In short: as §2

## C[C@]12C=CC(=O)C=C1CC[C@@H]1[C@@H]2[C@@H](O)C[C@@]2(C)[C@H]1CC[C@]2(O)C(=O)CO [Prednisolone] (10000 nM)
BT-474
  normalised response: 144%
MDA-MB-436
  normalised response: 104%
MDA-MB-468
  normalised response: 113%
MDA-MB-231
  normalised response: 151%
MDA-MB-453 [1]
  normalised response: 94.9%
CAL-51 [2]
  normalised response: 88.8%
BT-549
  normalised response: 99%
HCC1143
  normalised response: 112%
CAL-85-1 [3]
  normalised response: 118%
HCC1599
  normalised response: 102%

## CCC/C=C/C=C/C(=O)O[C@H]1/C(=C/C(=O)OC)C[C@H]2C[C@H]([C@@H](C)O)OC(=O)C[C@H](O)C[C@@H]3C[C@H](OC(C)=O)C(C)(C)[C@](O)(C[C@@H]4C/C(=C/C(=O)OC)C[C@H](/C=C/C(C)(C)[C@]1(O)O2)O4)O3 [Bryostatin 1] (100 nM)
BT-474
  normalised response: 81.2%
MDA-MB-436
  normalised response: 111%
MDA-MB-468
  normalised response: 98.3%
MDA-MB-231
  normalised response: 93.1%
MDA-MB-453 [1]
  normalised response: 103%
CAL-51 [2]
  normalised response: 96.5%
BT-549
  normalised response: 87.9%
HCC1143
  normalised response: 94.1%
CAL-85-1 [3]
  normalised response: 98.5%
HCC1599
  normalised response: 86.4%

## Cc1c(CN2CCN(C(=O)[C@H](C)O)CC2)sc2c(N3CCOCC3)nc(-c3cnc(N)nc3)nc12 [GDC-0980] (10000 nM)
BT-474
  normalised response: 47.6%
MDA-MB-436
  normalised response: 43.1%
MDA-MB-468
  normalised response: 17.8%
MDA-MB-231
  normalised response: 34.3%
MDA-MB-453 [1]
  normalised response: 9.21%
CAL-51 [2]
  normalised response: 8.48%
BT-549
  normalised response: 19%
HCC1143
  normalised response: 20.7%
CAL-85-1 [3]
  normalised response: 18.2%
HCC1599
  normalised response: 66.2%

## CNC(=O)c1cc(Oc2ccc(NC(=O)Nc3ccc(Cl)c(C(F)(F)F)c3)cc2)ccn1 [Sorafenib]
CAL-85-1 [4]
  EC50, CellTiter-Blue viability: 159 nM

## Cc1nc(Nc2ncc(C(=O)Nc3c(C)cccc3Cl)s2)cc(N2CCN(CCO)CC2)n1 [Dasatinib] (1000 nM)
BT-474
  normalised response: 45.7%
MDA-MB-436
  normalised response: 91.9%
MDA-MB-468
  normalised response: 73.1%
MDA-MB-231
  normalised response: 34.1%
MDA-MB-453 [1]
  normalised response: 80.5%
CAL-51 [2]
  normalised response: 47.9%
BT-549
  normalised response: 55.3%
HCC1143
  normalised response: 60.3%
CAL-85-1 [3]
  normalised response: 35.8%
HCC1599
  normalised response: 97.7%

## COc1cc(CCc2cc(NC(=O)c3ccc(N4CC(C)NC(C)C4)cc3)n[nH]2)cc(OC)c1 (configuration not stated) [AZD4547] (1000 nM)
BT-474
  normalised response: 99.6%
MDA-MB-436
  normalised response: 98%
MDA-MB-468
  normalised response: 104%
MDA-MB-231
  normalised response: 103%
MDA-MB-453 [1]
  normalised response: 85%
CAL-51 [2]
  normalised response: 108%
BT-549
  normalised response: 88.7%
HCC1143
  normalised response: 96.5%
CAL-85-1 [3]
  normalised response: 105%
HCC1599
  normalised response: 80.9%

## CCN(CC)CCNC(=O)c1c(C)[nH]c(/C=C2\C(=O)Nc3ccc(F)cc32)c1C [Sunitinib]
HDQ-P1
  EC50, CellTiter-Blue viability: 721 nM

## Cn1cc(CNCC2CCN(c3ncc(C(=O)NO)cn3)CC2)c2ccccc21
CAL-148
  EC50, CellTiter-Blue viability: 11.9 nM
MDA-MB-453 [5]
  EC50, CellTiter-Blue viability: 4.36 nM
CAL-51 [6]
  EC50, CellTiter-Blue viability: 62.1 nM
HDQ-P1
  EC50, CellTiter-Blue viability: 18.2 nM
DU-4475
  EC50, CellTiter-Blue viability: 14.3 nM
CAL-85-1 [4]
  EC50, CellTiter-Blue viability: 17.2 nM

## O=C(NC[C@H](O)CO)c1ccncc1Nc1ccc(I)cc1F
CAL-148
  EC50, CellTiter-Blue viability: 9.85 nM
MDA-MB-453 [5]
  EC50, CellTiter-Blue viability: 4980 nM
CAL-51 [6]
  EC50, CellTiter-Blue viability: 663 nM
HDQ-P1
  EC50, CellTiter-Blue viability: 161 nM
DU-4475
  EC50, CellTiter-Blue viability: 11.7 nM
CAL-85-1 [4]
  EC50, CellTiter-Blue viability: 1660 nM

## CCN(CC)CCNC(=O)c1c(C)[nH]c(/C=C2\C(=O)Nc3ccc(F)cc32)c1C [Sunitinib] (1000 nM)
BT-474
  normalised response: 98.9%
MDA-MB-436
  normalised response: 93.7%
MDA-MB-468
  normalised response: 107%
MDA-MB-231
  normalised response: 102%
MDA-MB-453 [1]
  normalised response: 97.3%
CAL-51 [2]
  normalised response: 109%
BT-549
  normalised response: 108%
HCC1143
  normalised response: 103%
CAL-85-1 [3]
  normalised response: 107%
HCC1599
  normalised response: 105%

## Cc1nc(Nc2ncc(C(=O)Nc3c(C)cccc3Cl)s2)cc(N2CCN(CCO)CC2)n1 [Dasatinib]
CAL-51 [6]
  EC50, CellTiter-Blue viability: 22.2 nM
HDQ-P1
  EC50, CellTiter-Blue viability: 12.4 nM
CAL-85-1 [4]
  EC50, CellTiter-Blue viability: 83.9 nM

## C[C@]12O[C@H](C[C@]1(O)CO)n1c3ccccc3c3c4c(c5c6ccccc6n2c5c31)CNC4=O [Lestaurtinib]
MDA-MB-453 [5]
  EC50, CellTiter-Blue viability: 174 nM
CAL-51 [6]
  EC50, CellTiter-Blue viability: 330 nM
DU-4475
  EC50, CellTiter-Blue viability: 186 nM
CAL-85-1 [4]
  EC50, CellTiter-Blue viability: 284 nM

## Nc1cccc2c1CN(C1CCC(=O)NC1=O)C2=O (configuration not stated) [Lenalidomide] (10000 nM)
BT-474
  normalised response: 94%
MDA-MB-436
  normalised response: 91.3%
MDA-MB-468
  normalised response: 107%
MDA-MB-231
  normalised response: 103%
MDA-MB-453 [1]
  normalised response: 102%
CAL-51 [2]
  normalised response: 114%
BT-549
  normalised response: 98%
HCC1143
  normalised response: 95.3%
CAL-85-1 [3]
  normalised response: 103%
HCC1599
  normalised response: 103%

## O=C1c2c(O)ccc(O)c2C(=O)c2c(NCCNCCO)ccc(NCCNCCO)c21 [Mitoxantrone]
CAL-148
  EC50, CellTiter-Blue viability: 26.2 nM
MDA-MB-453 [5]
  EC50, CellTiter-Blue viability: 539 nM
CAL-51 [6]
  EC50, CellTiter-Blue viability: 10.7 nM
HDQ-P1
  EC50, CellTiter-Blue viability: 58.6 nM
DU-4475
  EC50, CellTiter-Blue viability: 8.91 nM
CAL-85-1 [4]
  EC50, CellTiter-Blue viability: 182 nM

## CO[C@@H](C(=O)N1Cc2[nH]nc(NC(=O)c3ccc(N4CCN(C)CC4)cc3)c2C1)c1ccccc1 [Danusertib] (10000 nM)
BT-474
  normalised response: 55.5%
MDA-MB-436
  normalised response: 57.5%
MDA-MB-468
  normalised response: 50.1%
MDA-MB-231
  normalised response: 42.7%
MDA-MB-453 [1]
  normalised response: 95%
CAL-51 [2]
  normalised response: 31.1%
BT-549
  normalised response: 14.7%
HCC1143
  normalised response: 47.1%
CAL-85-1 [3]
  normalised response: 67.8%
HCC1599
  normalised response: 78.5%
